# Reference: EP4512427A1, “ANTIBODY-DRUG CONJUGATES BASED ON MOLECULAR GLUE DEGRADERS AND USES THEREOF” (Mablink Bioscience, priority 2023, dated 2025)
# Legend:
# [1] = test system: BT-474; assay: In vitro cytotoxicity assay (MTT); assay type: cell-based, human; conditions: BT-474, 6 days incubation, MTT
# Procedure: (§1) In vitro cytotoxicity of compounds of the disclosure was assessed on several cancerous human cell lines. Cells were plated in 96-well plates at an appropriate density depending on the cell line (between 1000 and 10 000 cells/well in 100µL of appropriate culture media) and incubated at 37°C for 24 hours. Serial dilutions of the tested compound previously dissolved in culture media (50µL) were added, and incubation was carried at 37°C out for 6 days. MTT (5mg/mL in PBS, 20µL, Sigma-Aldrich) was added into the wells, and incubation was continued for 1 to 4 hours at 37°C. Culture media was then carefully removed, and well content was homogeneously dissolved with acidified isopropanol. Absorbance values were measured on a microplate reader using a wavelength of 570 nm (with a reference wavelength of 690 nm). The IC50 concentration values compared to untreated control cells were determined using inhibition dose response curve fitting (GraphPad Prism 9). Exatecan mesylate (cat#HY-13631A) and CR8 (CAS# 294646-77-8; cat#HY-18340) were purchased from MedChemExpress (China).
# [2] = test system: JIMT-1; assay: In vitro cytotoxicity assay (MTT); assay type: cell-based, human; conditions: 6 days incubation
# Procedure: as §1
# [3] = test system: MDA-MB-231; assay: In vitro cytotoxicity assay (MTT); assay type: cell-based, human; conditions: 6 days incubation
# Procedure: as §1
# [4] = test system: MDA-MB-453; assay: In vitro cytotoxicity assay (MTT); assay type: cell-based, human; conditions: 6 days incubation
# Procedure: as §1
# [5] = test system: NCI-N87; assay: In vitro cytotoxicity assay (MTT); assay type: cell-based, human; conditions: 6 days incubation
# Procedure: as §1
# [6] = test system: SKBR-3; assay: In vitro cytotoxicity assay (MTT); assay type: cell-based, human; conditions: 6 days incubation
# Procedure: as §1
# [7] = test system: A549; assay: In vitro cytotoxicity assay (MTT); assay type: cell-based; conditions: Homo sapiens, 144 h, 6 days incubation
# Procedure: as §1
# [8] = test system: BXPC3; assay: In vitro cytotoxicity assay (MTT); assay type: cell-based; conditions: Homo sapiens, BXPC-3, 144 h, 6 days incubation
# Procedure: as §1
# [9] = test system: Caco-2; assay: In vitro cytotoxicity assay (MTT); assay type: cell-based; conditions: Homo sapiens, 144 h, 6 days incubation
# Procedure: as §1
# [10] = test system: HCT-116; assay: In vitro cytotoxicity assay (MTT); assay type: cell-based; conditions: Homo sapiens, 144 h, 6 days incubation
# Procedure: as §1
# [11] = test system: HT-29; assay: In vitro cytotoxicity assay (MTT); assay type: cell-based; conditions: Homo sapiens, 144 h, 6 days incubation
# Procedure: as §1
# [12] = test system: MCF-7; assay: In vitro cytotoxicity assay (MTT); assay type: cell-based; conditions: Homo sapiens, MCF7, 144 h, 6 days incubation
# Procedure: as §1
# [13] = test system: OE-19; assay: In vitro cytotoxicity assay (MTT); assay type: cell-based; conditions: Homo sapiens, OE19, 144 h, 6 days incubation
# Procedure: as §1
# [14] = test system: cancerous human cell lines; assay: In vitro cytotoxicity assay (MTT), side-by-side comparisons over the cell line panel; assay type: cell-based; conditions: side-by-side comparison (Figures 1-3, Table 3), result in words
# Procedure: as §1
# [15] = test system: CycK; assay: CycK protein quantification by Western Blot; assay type: cell-based, human
# Procedure: 1×10^6 JIMT-1 cells were plated in 3mL of DMEM/FBS 90:10 (v/v) in 6-well plates and incubated overnight. Cells were treated with the compound 2384 of the invention with or without the proteasome inhibitor MG-132 (MedChemExpress, Cat HY-13259) for 2h. Cells were harvested, and protein were extracted using complete RIPA buffer (RIPA buffer, 1 mM DTT, 1M NaF, 100 mM sodium orthovanadate, phosphatase inhibitor buffer and protease inhibitors) for 1 hour on ice. Lysate were centrifuged 15min at 12 000g at 4°C. and proteins were mixed with 4x Laemmli Sample Buffer (Bio-Rad), heated at 95 °C for 5 mins and separated by SDS PAGE (PROTEAN TGX Stain-Free Gels, Bio-Rad). Proteins were then transferred onto PVDF membrane (iBlot®2 PVDF stacks, Invitrogen) using the iBlot2 device (Invitrogen) and blocked with TBS buffer (Intercept® Blocking Buffer, LI-COR Biosciences). Primary antibodies were incubated overnight at 4°C and secondary antibodies (IRDye Infrared Dyes from LI-COR Biosciences) 1 hour at room temperature. Used primary antibody were: anti-CycK (cat#A301-939A, Bethyl Laboratories, dil. 1:1000) and anti-β-actin (cat#A5441, Sigma-Aldrich, dil. 1:5000). Membranes were scanned using a c500 Imaging System (Azure Biosystems) and densitometric quantification were performed using imaged software. Protein levels were normalized against β-actin.
# [16] = test system: JIMT-1 cells; assay: Cell cycle arrest assessment (propidium iodide); assay type: cell-based, human
# Procedure: 1×10^6 JIMT-1 cells were plated in 3mL of DMEM/FBS 90:10 (v/v) in 6-well plates and incubated overnight. Cells were treated with the compound 2384 of the invention or with CR8 for 24h. Cells were then harvested and washed three times with PBS. Cells were suspended into 300µL of propidium iodide working solution (0.05mg/mL) and incubated for 45 minutes at 4°C in the dark. Analysis was performed using a BD Fortessa flow cytometer controlled by BD FACSDiva software (BD Biosciences) and data were analyzed using FlowJo software (BD Bioscience).
# [17] = Homo sapiens, MDA-MB-231, 144 h
# [18] = Homo sapiens, MDA-MB-453, 144 h
SMILES,"IC50 ([1]; Homo sapiens, BT-474, 144 h) [nM]","IC50 ([2]; Homo sapiens, 144 h) [nM]","IC50 [3, 17] [nM]","IC50 [4, 18] [nM]","IC50 ([5]; Homo sapiens, NCI-N87, 144 h) [nM]","IC50 ([6]; Homo sapiens, SK-BR-3, 144 h) [nM]",IC50 [7] [nM],IC50 [9] [nM],IC50 [10] [nM],IC50 [11] [nM],IC50 [12] [nM],IC50 [13] [nM],further results
"Brc1cnn2c(NCc3ccc(-c4ccccn4)cc3)nc(NC3CCNCC3)nc12 [Compound 2388, 8-bromo-N2-(piperidin-4-yl)-N4-(4-(pyridin-2-yl)benzyl)pyrazolo[1,5-a][1,3,5]triazine-2,4-diamine]",1.64,0.64,0.76,1.27,1.4,1.68,0.65,4.46,1.66,0.23,5.4,3.77,IC50 [8]: 1.97 nM
"CC[C@H](CO)Nc1nc(NCc2ccc(-c3ccccn3)cc2)c2ncn(C(C)C)c2n1 [CR8, reference compound]",,,,,,,,,,,,,"IC50 [1]: 18.4 nM; IC50 [2]: 25.2 nM; IC50 [3]: 10.4 nM; IC50 [4]: 40.3 nM; IC50 [5]: 62.2 nM; IC50 [6]: 30.6 nM; in vitro cytotoxicity potency [14]: potencies in the high nanomolar range; CycK degradation ([15]; 10nM, 2h treatment of JIMT-1 cells): no CycK was observed; cell cycle analysis ([16]; 24h at 50 nM): arrest in G2/M phase; cell cycle analysis ([16]; 24h at 2, 5, and 10 nM): no impact on cell cycle"
CC(C)c1cnn2c(NCc3ccc(-c4ccccn4)cc3)nc(NC3CCNCC3)nc12 [Compound 2428],3.73,0.92,2.31,3.11,4.5,1.94,2.22,24.2,5.31,0.83,9.12,7.84,
"CC(C)c1cnn2c(NCc3ccc(-c4ccccn4)cc3)nc(N[C@H]3CC[C@H](N)CC3)nc12 [Compound 2420, N2-((1r,4r)-4-aminocyclohexyl)-8-isopropyl-N4-(4-(pyridin-2-yl)benzyl)pyrazolo[1,5-a][1,3,5]triazine-2,4-diamine]",3.41,0.61,0.7,2.73,4.93,3.25,1.99,56.1,4.4,1.74,7.78,6.91,
"CN(C)C/C=C/C(=O)Nc1ccc(C(=O)N2CCC[C@@H](Nc3ncc(Cl)c(-c4c[nH]c5ccccc45)n3)C2)cc1 [THZ-531, reference compound]",,,,,,,,,,,,,"CycK protein content ([15]; JIMT-1 cells, 1µM, 2h): no impact on CycK protein content"
